Laboratory results as given in PubChem BioAssay AID328 (DTP/NCI, 2004).
Values joined by “and” are separate entries in the source; they are usually repeats but may differ in a detail not shown here. Identical values can stand only once. Inconclusive results and toxic doses are left out.

Tested on: BDF1 mice, P388 leukemia ip, median survival T/C
Assay: NCI In Vivo Anticancer Drug Screen. Data for tumor model P388 Leukemia (intraperitoneal) in B6D2F1 (BDF1) mice
Conditions: endpoint: median survival time, higher = longer survival
Protocol: The antitumor activity of compounds was measured in mice bearing transplantable tumors. Survival or tumor size were measured and the results are expressed as the measurement made in the treated group (T) divided by the measurement made in the vehicle treated control group (C). The tumor model used in this assay is P388 Leukemia (intraperitoneal) in B6D2F1 (BDF1) mice

[1] = dose: 12.5 mg/kg/injection, schedule: Q01DX009 (ip), vehicle: saline with Tween-80
[2] = dose: 25.0 mg/kg/injection, schedule: Q01DX009 (ip), vehicle: saline with Tween-80
[3] = dose: 100.0 mg/kg/injection, schedule: Q01DX009 (ip), vehicle: saline with Tween-80
[4] = dose: 100.0 mg/kg/injection, schedule: Q04DX003 (ip), vehicle: saline with Tween-80
[5] = dose: 200.0 mg/kg/injection, schedule: Q01DX009 (ip), vehicle: saline with Tween-80
[6] = dose: 200.0 mg/kg/injection, schedule: Q04DX003 (ip), vehicle: saline with Tween-80
[7] = dose: 400.0 mg/kg/injection, schedule: Q01DX009 (ip), vehicle: saline with Tween-80
[8] = dose: 400.0 mg/kg/injection, schedule: Q04DX003 (ip), vehicle: saline with Tween-80
[9] = dose: 12.5 mg/kg/injection, schedule: Q01DX009 (ip), vehicle: saline
[10] = dose: 25.0 mg/kg/injection, schedule: Q01DX009 (ip), vehicle: saline
[11] = dose: 100.0 mg/kg/injection, schedule: Q01DX009 (ip), vehicle: saline
[12] = dose: 200.0 mg/kg/injection, schedule: Q01DX009 (ip), vehicle: saline
[13] = dose: 100.0 mg/kg/injection, schedule: Q01DX009 (ip), vehicle: Klucel (hydroxypropylcellulose) (HPC)
[14] = dose: 50.0 mg/kg/injection, schedule: Q01DX009 (ip), vehicle: saline
[15] = dose: 100.0 mg/kg/injection, schedule: Q04DX003 (ip), vehicle: saline sonified
[16] = dose: 200.0 mg/kg/injection, schedule: Q04DX003 (ip), vehicle: saline sonified
[17] = dose: 200.0 mg/kg/injection, schedule: Q04DX003 (ip), vehicle: saline
[18] = dose: 50.0 mg/kg/injection, schedule: Q01DX009 (ip), vehicle: saline with Tween-80

SMILES: CC(=O)CC(C)=O.CC(=O)CC(C)=O.[Co]
- T/C (dose: 6.25 mg/kg/injection, schedule: Q01DX009 (ip), vehicle: saline with Tween-80): 96 % of control
- T/C (dose: 6.25 mg/kg/injection, schedule: Q04DX003 (ip), vehicle: saline with Tween-80): 88 % of control
- T/C [1]: 112 % of control
- T/C (dose: 12.5 mg/kg/injection, schedule: Q04DX003 (ip), vehicle: saline with Tween-80): 92 % of control
- T/C [2]: 120 % of control
- T/C (dose: 25.0 mg/kg/injection, schedule: Q04DX003 (ip), vehicle: saline with Tween-80): 92 % of control

SMILES: Cc1ccc(/C=C/C(=O)c2ccc(Cl)cc2)cc1
- T/C [3]: 90 % of control
- T/C [4]: 95 % of control
- T/C [5]: 90 % of control
- T/C [6]: 109 % of control
- T/C [7]: 100 % of control
- T/C [8]: 109 % of control

SMILES: COC1OC(CO)C(O)C(O)C1O (stereo unspecified)
- T/C (dose: 6.25 mg/kg/injection, schedule: Q01DX009 (ip), vehicle: saline): 97 % of control
- T/C [9]: 106 % of control
- T/C [10]: 97 % of control
- T/C [11]: 104 % of control
- T/C [12]: 106 % of control

SMILES: CC1(C)N=C(N)N=C(N)N1c1cccc(Cl)c1
- T/C (dose: 1.9 mg/kg/injection, schedule: Q04DX003 (ip), vehicle: saline): 104 % of control
- T/C (dose: 2.9 mg/kg/injection, schedule: Q04DX003 (ip), vehicle: saline): 100 % of control
- T/C (dose: 10.0 mg/kg/injection, schedule: Q04DX003 (ip), vehicle: saline): 113 % of control
- T/C (dose: 18.0 mg/kg/injection, schedule: Q01DX009 (ip), vehicle: saline): 195 % of control
- T/C (dose: 18.7 mg/kg/injection, schedule: Q01DX009 (ip), vehicle: saline): 168 % of control
- T/C (dose: 28.0 mg/kg/injection, schedule: Q01DX009 (ip), vehicle: saline): 160 % of control and 209 % of control
- T/C (dose: 37.5 mg/kg/injection, schedule: Q04DX003 (ip), vehicle: saline): 175 % of control and 177 % of control
- T/C (dose: 40.0 mg/kg/injection, schedule: Q01DX009 (ip), vehicle: saline): 95 % of control
- T/C (dose: 42.0 mg/kg/injection, schedule: Q01DX009 (ip), vehicle: saline): 213 % of control
- T/C (dose: 56.25 mg/kg/injection, schedule: Q04DX003 (ip), vehicle: saline): 150 % of control

SMILES: CCC[CH2][Sn]1([CH2]CCC)[O]OC2(CCCCC2)[O]1
- T/C (dose: 1.25 mg/kg/injection, schedule: Q01DX009 (ip), vehicle: Klucel (hydroxypropylcellulose) (HPC)): 115 % of control
- T/C (dose: 1.57 mg/kg/injection, schedule: Q04DX003 (ip), vehicle: saline sonified): 122 % of control
- T/C (dose: 3.13 mg/kg/injection, schedule: Q04DX003 (ip), vehicle: saline sonified): 116 % of control
- T/C (dose: 5.0 mg/kg/injection, schedule: Q01DX009 (ip), vehicle: Klucel (hydroxypropylcellulose) (HPC)): 115 % of control

SMILES: CCCCCCCCOc1cc2c(c(OC(C)=O)c1)-c1ccccc1CC2
- T/C [4]: 97 % of control
- T/C [6]: 99 % of control
- T/C [8]: 99 % of control

SMILES: CC1CN=C(c2ccc(NC(=O)Nc3ccc(C(=O)Nc4ccc(C5=NCC(C)N5)cc4)cc3)cc2)N1 (stereo unspecified)
- T/C (dose: 66.0 mg/kg/injection, schedule: Q04DX003 (ip), vehicle: saline with Tween-80): 168 % of control and 209 % of control
- T/C [4]: 90 % of control and 222 % of control
- T/C (dose: 150.0 mg/kg/injection, schedule: Q04DX003 (ip), vehicle: saline with Tween-80): 100 % of control

SMILES: CCCc1nc2c(OC)ccc(OC)c2nc1C
- T/C (dose: 25.0 mg/kg/injection, schedule: Q01DX009 (ip), vehicle: Klucel (hydroxypropylcellulose) (HPC)): 100 % of control
- T/C (dose: 50.0 mg/kg/injection, schedule: Q01DX009 (ip), vehicle: Klucel (hydroxypropylcellulose) (HPC)): 100 % of control
- T/C [13]: 100 % of control
- T/C (dose: 150.0 mg/kg/injection, schedule: Q01DX009 (ip), vehicle: Klucel (hydroxypropylcellulose) (HPC)): 90 % of control

SMILES: C/C(=N/N(C)C)c1ccc(Br)cc1
- T/C [9]: 100 % of control
- T/C [10]: 100 % of control
- T/C [14]: 112 % of control
- T/C (dose: 110.0 mg/kg/injection, schedule: Q04DX003 (ip), vehicle: saline): 109 % of control
- T/C (dose: 170.0 mg/kg/injection, schedule: Q04DX003 (ip), vehicle: saline): 95 % of control
- T/C (dose: 255.0 mg/kg/injection, schedule: Q04DX003 (ip), vehicle: saline): 95 % of control

SMILES: CCCO/C(N)=N/OS(=O)(=O)c1ccccc1
- T/C [4]: 97 % of control
- T/C [6]: 99 % of control
- T/C [8]: 96 % of control

SMILES: CCCCCCCCCCC(O)CN1CCN(c2ccc(C)cc2)CC1 (stereo unspecified)
- T/C [3]: 100 % of control
- T/C [15]: 100 % of control
- T/C (dose: 176.0 mg/kg/injection, schedule: Q04DX003 (ip), vehicle: saline with Tween-80): 90 % of control
- T/C [5]: 100 % of control
- T/C [16]: 115 % of control
- T/C (dose: 264.0 mg/kg/injection, schedule: Q04DX003 (ip), vehicle: saline with Tween-80): 90 % of control
- T/C [7]: 90 % of control

SMILES: CCOC(=O)c1cnc(C)[nH]c1=O
- T/C [10]: 113 % of control
- T/C [14]: 118 % of control
- T/C (dose: 50.0 mg/kg/injection, schedule: Q04DX003 (ip), vehicle: saline): 100 % of control
- T/C [11]: 100 % of control
- T/C (dose: 100.0 mg/kg/injection, schedule: Q04DX003 (ip), vehicle: saline): 104 % of control
- T/C [17]: 86 % of control

SMILES: Cc1nc[nH]c(=O)c1N
- T/C [14]: 102 % of control
- T/C [11]: 102 % of control
- T/C [12]: 102 % of control

SMILES: CC1(C)CC(C)(c2ccccc2)c2ccccc21 (stereo unspecified)
- T/C [13]: 120 % of control
- T/C (dose: 100.0 mg/kg/injection, schedule: Q04DX003 (ip), vehicle: other): 109 % of control
- T/C (dose: 132.0 mg/kg/injection, schedule: Q01DX009 (ip), vehicle: Klucel (hydroxypropylcellulose) (HPC)): 90 % of control
- T/C (dose: 200.0 mg/kg/injection, schedule: Q04DX003 (ip), vehicle: other): 114 % of control
- T/C (dose: 300.0 mg/kg/injection, schedule: Q01DX009 (ip), vehicle: Klucel (hydroxypropylcellulose) (HPC)): 100 % of control
- T/C (dose: 400.0 mg/kg/injection, schedule: Q04DX003 (ip), vehicle: other): 104 % of control

SMILES: O=C(O)CCCCOc1ccc(N(CCCl)CCCl)cc1
- T/C (dose: 50.0 mg/kg/injection, schedule: Q01DX001 (ip), vehicle: Klucel (hydroxypropylcellulose) (HPC)): 174 % of control
- T/C (dose: 100.0 mg/kg/injection, schedule: Q01DX001 (ip), vehicle: Klucel (hydroxypropylcellulose) (HPC)): 177 % of control
- T/C (dose: 200.0 mg/kg/injection, schedule: Q01DX001 (ip), vehicle: Klucel (hydroxypropylcellulose) (HPC)): 155 % of control

SMILES: O=C(CCCCC(=O)Nc1ccc(C(=O)Nc2cc(C3=NCCN3)cc(C3=NCCN3)c2)cc1)Nc1ccc(C(=O)Nc2cc(C3=NCCN3)cc(C3=NCCN3)c2)cc1
- T/C (dose: 66.0 mg/kg/injection, schedule: Q01DX009 (ip), vehicle: saline): 150 % of control
- T/C (dose: 150.0 mg/kg/injection, schedule: Q01DX009 (ip), vehicle: saline): 150 % of control
- T/C (dose: 150.0 mg/kg/injection, schedule: Q04DX003 (ip), vehicle: saline): 154 % of control
- T/C [17]: 150 % of control

SMILES: S=c1nn[nH]n1-c1ccccc1.[Zn+2]
- T/C [18]: 109 % of control
- T/C [3]: 118 % of control

SMILES: CCOC(=O)C1Cc2c([nH]c(=S)[nH]c2=O)OC1c1ccccc1 (stereo unspecified)
- T/C [1]: 100 % of control
- T/C [2]: 90 % of control
- T/C [18]: 104 % of control

SMILES: CC1(C)CCC2(C)CC=C3OC(=O)CCC3(C)C2C1 (stereo unspecified)
- T/C [3]: 118 % of control
- T/C [15]: 100 % of control
- T/C [5]: 100 % of control
- T/C [16]: 100 % of control
- T/C [7]: 109 % of control
- T/C (dose: 400.0 mg/kg/injection, schedule: Q04DX003 (ip), vehicle: saline sonified): 95 % of control

SMILES: CCOc1nc(SCC)ncc1C
- T/C (dose: 50.0 mg/kg/injection, schedule: Q01DX009 (ip), vehicle: water): 109 % of control
- T/C (dose: 100.0 mg/kg/injection, schedule: Q01DX009 (ip), vehicle: water): 101 % of control
- T/C (dose: 100.0 mg/kg/injection, schedule: Q04DX003 (ip), vehicle: water): 99 % of control
- T/C (dose: 200.0 mg/kg/injection, schedule: Q01DX009 (ip), vehicle: water): 108 % of control
- T/C (dose: 200.0 mg/kg/injection, schedule: Q04DX003 (ip), vehicle: water): 103 % of control
- T/C (dose: 400.0 mg/kg/injection, schedule: Q04DX003 (ip), vehicle: water): 107 % of control
